{"source": "patent US8664160B2", "about": "“Fungicidal mixtures” (BASF SE, priority 2005, dated 2014)", "test_system": "bentgrass", "experiment": "Seed treatment of bentgrass: ground coverage by emerged plants", "format": "in vivo", "details": "20 g a.i./100 kg seed, greenhouse, humid conditions, 7 days after planting, untreated 10.8%", "text": "Seeds of bentgrass were seed-treated with the products and concentrations listed. Triticonazol and Pyraclstrobin were used as 200 g/l FS-formulation. Metalaxyl als a 17.7% LS-formulation. Treated sees were planted at the day of treatment and then kept under humid conditions in the greenhouse. 7 days after plating the ground coverage by emerged plants were estimated in percentage.", "data": [{"molecule": "COCC(=O)N(c1c(C)cccc1C)[C@H](C)C(=O)OC", "note": "[Metalaxyl-M, metalaxyl-M]", "values": [{"measurement": "% covered ground", "value": 36.3, "unit": "%"}]}]}
